From patent publication US20230372333A1, “COMBINATION THERAPY FOR TREATING CANCER” (ASTRAZENECA AB, priority 2020, published 2023)
Entries after “also recorded” stand apart in the source; their conditions may differ.

Assays:
SUM149PT xenograft model = experiment: Anti-tumour efficacy of AZD5305, carboplatin and combination in SUM149PT xenograft model (Example 3); assay type: in vivo, mice; settings: AZD5305 0.01 mg/kg PO QD, 28 days
Description: SUM149PT cells (2×10^6) were implanted with 50% Matrigel into mammary fat pad (MFP) of female SCID mice (weight greater than 18 g). Tumours were measured (length×width) two times weekly by bilateral Vernier calliper measurements and tumour volume was calculated using elliptical formula (π/6×width×width×length). Animal bodyweight and tumour condition were monitored throughout the studies. Mice were randomised into treatment groups when mean tumour volume reached approximately 0.3 cm^3. Animals were treated from the day after the randomisation. Control animals were treated orally (PO) once daily (QD) with vehicle (deionised water acidified with HCl to pH 3.5-4) and intraperitoneally (IP) once weekly (QW) with PBS. AZD5305 was dosed PO QD at 0.1, 0.03 or 0.01 mg/kg. Carboplatin was dosed IP once weekly (QW) at 37.5 mg/kg. In the combination group, mice were dosed with carboplatin first, followed by AZD5305 administration within 10 minutes.
(§1) Tumour growth inhibition from start of treatment was assessed by comparison of the mean change in tumour volume of the control and treated groups and represented as percent tumour growth inhibition (TGI, when TV≥starting TV) or regression (reg, when TV<starting TV). Mean percent body weight change from start of treatment was also calculated for all the groups. Statistical significance was evaluated using a one-tailed t test. […]

[1] = system: HBCx-9 patient-derived explant model; experiment: Anti-tumour efficacy of AZD5305, carboplatin and combination in HBCx-9 PDX model (Example 2); assay type: in vivo; settings: carboplatin 50 mg/kg IP QW, 28 days, Nude female mice
Excerpt: HBCx-9 is a patient-derived tumour explant (PDX) model established in XenTech without prior in vitro culture. Tumour fragments were transplanted subcutaneously (SC) onto donor mice. When tumour volume reached 700 to 1764 mm^3, donor mice were sacrificed, and tumours were aseptically excised and dissected. After removing necrotic areas, tumours were cut into fragments measuring approximately 20 mm^3 and transferred in culture medium before grafting SC into the recipient (experimental) Nude female mice. Tumours were measured (length×width) two times weekly by bilateral Vernier calliper measurements and tumour volume was calculated using elliptical formula (π/6×width×width×length). Animal bodyweight and tumour condition were monitored throughout the study. Mice were randomised into treatment groups when mean tumour volume reached approximately 100 mm^3. Animals were treated from the day after the randomisation. […]
as §1, with “TV≤starting” for “TV≥starting”

HBCx-9 = HBCx-9 TNBC PDX model, reference [2]; cited from earlier work

## CCc1cc2ncc(CN3CCN(c4ccc(C(=O)NC)nc4)CC3)cc2[nH]c1=O [AZD5305, 5-[4-[(7-ethyl-6-oxo-5H-1,5-naphthyridin-3-yl)methyl]piperazin-1-yl]-N-methyl-pyridine-2-carboxamide]
SUM149PT xenograft model
  Tumour Growth Inhibition/Regression (end of treatment): did not inhibit tumour growth; also recorded: No TGI or regression

## N.N.O=C([O-])C1(C(=O)[O-])CCC1.[Pt+2] [Carboplatin, carboplatin]
[1]
  Tumour Growth Inhibition/Regression (end of treatment): TGI: 88% TGI *** (p ≤ 0.001)
[1]; listed as carboplatin
  Tumour Growth Inhibition/Regression (end of treatment): TGI: 88%

## O=C(c1cc(Cc2n[nH]c(=O)c3ccccc23)ccc1F)N1CCN(C(=O)C2CC2)CC1 [olaparib]
HBCx-9
  sensitivity of HBCx-9 to monotherapy: moderate sensitivity
